Values quoted from earlier work, collected in US20090285811A1, “ANTI-INFLAMMATORY AND IMMUNOSUPPRESSIVE GLUCOCORTICOID STEROIDS” (Auspex Pharmaceuticals, Inc., priority 2008, published 2009).
Read-outs that look alike come from different tables or passages of the source.

Experiments:
glucocorticoid receptor = biological target: T1, glucocorticoid receptor (Homo sapiens, UniProt P04150); details: primary human CYP3A metabolites of budesonide
T1 sequence (P04150 1-777): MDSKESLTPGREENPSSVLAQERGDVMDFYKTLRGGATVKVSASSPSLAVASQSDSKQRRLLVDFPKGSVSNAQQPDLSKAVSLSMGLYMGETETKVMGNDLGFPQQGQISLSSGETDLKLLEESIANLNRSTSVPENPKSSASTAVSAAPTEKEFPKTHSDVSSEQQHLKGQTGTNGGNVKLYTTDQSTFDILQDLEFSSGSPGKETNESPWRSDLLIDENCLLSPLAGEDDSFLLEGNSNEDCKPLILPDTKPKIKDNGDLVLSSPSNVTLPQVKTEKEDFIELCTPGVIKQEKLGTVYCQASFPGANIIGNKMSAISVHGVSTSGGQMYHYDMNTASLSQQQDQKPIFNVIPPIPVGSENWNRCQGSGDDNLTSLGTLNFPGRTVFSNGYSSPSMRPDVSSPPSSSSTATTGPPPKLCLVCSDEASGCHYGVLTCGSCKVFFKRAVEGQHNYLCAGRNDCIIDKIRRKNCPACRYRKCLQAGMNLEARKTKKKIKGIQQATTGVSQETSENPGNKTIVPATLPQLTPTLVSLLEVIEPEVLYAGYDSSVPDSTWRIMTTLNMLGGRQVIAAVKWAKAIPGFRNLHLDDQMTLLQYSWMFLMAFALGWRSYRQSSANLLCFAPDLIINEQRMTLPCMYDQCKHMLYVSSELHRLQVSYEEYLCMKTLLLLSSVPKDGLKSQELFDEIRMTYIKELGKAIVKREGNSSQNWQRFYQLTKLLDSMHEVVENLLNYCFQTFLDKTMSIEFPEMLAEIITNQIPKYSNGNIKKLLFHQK

## CCCC1O[C@@H]2C[C@H]3[C@@H]4C[C@@H](O)C5=CC(=O)C=C[C@]5(C)[C@H]4[C@@H](O)C[C@]3(C)[C@]2(C(=O)CO)O1 (stereo partly drawn) [6β-hydroxybudesonide]
Glucocorticoid receptor
  potency compared with budesonide: significantly less potent

## C[C@]12C=CC(=O)C=C1CC[C@@H]1[C@@H]2[C@@H](O)C[C@@]2(C)[C@H]1C[C@@H](O)[C@]2(O)C(=O)CO [16α-hydroxyprednisolone]
Glucocorticoid receptor
  potency compared with budesonide: significantly less potent

## CCCC1O[C@@H]2C[C@H]3[C@@H]4CCC5=CC(=O)C=C[C@]5(C)[C@H]4[C@@H](O)C[C@]3(C)[C@]2(C(=O)CO)O1 (stereo partly drawn) [Budesonide, 16,17-(butylidenebis(oxy))-11,21-dihydroxy-, (11-β,16-α)-pregna-1,4-diene-3,20-dione]
After oral administration
  systemic availability: approximately 12%
In vivo
  elimination half-life: approximately 2 hours
Intranasal administration
  systemic availability: about 20%
non-oral routes of administration
  clearance: about 20 mL/min/Kg
Oral administration
  clearance: ~40 mL/min/kg
